From article PMC7979807, “A 37-amino acid loop in the Yarrowia lipolytica hexokinase impacts its activity and affinity and modulates gene expression” (Scientific Reports, 2021)

Legend:
Assay in all cases: Hexokinase Colorimetric Assay Kit, whole-cell extract, […] hexose
Format in all cases: biochemical
YlHxk1 [1] = target: T1, YlHxk1 (Yarrowia lipolytica, UniProt F2Z672, E500G); settings: relative to YlHxk1, absolute Km not given; extract 30 µg/mL protein in PBS pH 7.4; host hxk1 glk1
T1 construct: gene YALI0_B22308g; full-length, 534 residues, untagged; pTEF overexpression in Y. lipolytica Po1d hxk1 glk1; whole-cell extract; gene from W29 genomic DNA

YlHxk1 [2] = target: T2, YlHxk1 (Yarrowia lipolytica, UniProt F2Z672, DEL7-15); settings: relative to YlHxk1, absolute Km not given; extract 30 µg/mL protein in PBS pH 7.4; host hxk1 glk1
T2 construct: gene YALI0_B22308g; full-length, 534 residues, untagged; pTEF overexpression in Y. lipolytica Po1d hxk1 glk1; whole-cell extract; gene from W29 genomic DNA

ScHxk2 [3] = target: T3, ScHxk2 (Saccharomyces cerevisiae, UniProt P04807); settings: relative to YlHxk1, absolute Km not given; extract 30 µg/mL protein in PBS pH 7.4; host hxk1 glk1
T3 construct: gene HXK2; full-length, untagged; pTEF overexpression in Y. lipolytica Po1d hxk1 glk1; whole-cell extract
T3 sequence (P04807 2-486): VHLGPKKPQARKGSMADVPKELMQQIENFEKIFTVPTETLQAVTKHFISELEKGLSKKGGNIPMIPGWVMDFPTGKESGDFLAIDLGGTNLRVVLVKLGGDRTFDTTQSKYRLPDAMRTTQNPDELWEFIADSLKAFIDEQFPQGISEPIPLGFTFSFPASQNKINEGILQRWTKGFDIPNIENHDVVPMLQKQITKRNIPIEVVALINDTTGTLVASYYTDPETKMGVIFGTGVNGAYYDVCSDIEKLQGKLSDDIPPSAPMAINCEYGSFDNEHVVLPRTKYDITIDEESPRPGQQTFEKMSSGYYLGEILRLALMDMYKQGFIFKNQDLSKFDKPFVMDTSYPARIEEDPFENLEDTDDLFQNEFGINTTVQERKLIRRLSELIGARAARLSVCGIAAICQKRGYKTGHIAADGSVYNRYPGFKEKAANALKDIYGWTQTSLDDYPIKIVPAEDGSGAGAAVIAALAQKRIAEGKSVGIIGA

YlHxk1 [4] = target: T4, YlHxk1 (Yarrowia lipolytica, UniProt F2Z672, DEL155-182); settings: relative to YlHxk1, absolute Km not given; extract 30 µg/mL protein in PBS pH 7.4; host hxk1 glk1
T4 construct: gene YALI0_B22308g; full-length, 534 residues, untagged; pTEF overexpression in Y. lipolytica Po1d hxk1 glk1; whole-cell extract; gene from W29 genomic DNA

YlHxk1 [5] = target: T5, YlHxk1 (Yarrowia lipolytica, UniProt F2Z672); settings: reference enzyme of the fold scale, no absolute Km of this study printed; otherwise same
T5 construct: gene YALI0_B22308g; full-length, 534 residues, untagged; pTEF overexpression in Y. lipolytica Po1d hxk1 glk1; whole-cell extract; gene from W29 genomic DNA
T5 sequence (F2Z672 1-534): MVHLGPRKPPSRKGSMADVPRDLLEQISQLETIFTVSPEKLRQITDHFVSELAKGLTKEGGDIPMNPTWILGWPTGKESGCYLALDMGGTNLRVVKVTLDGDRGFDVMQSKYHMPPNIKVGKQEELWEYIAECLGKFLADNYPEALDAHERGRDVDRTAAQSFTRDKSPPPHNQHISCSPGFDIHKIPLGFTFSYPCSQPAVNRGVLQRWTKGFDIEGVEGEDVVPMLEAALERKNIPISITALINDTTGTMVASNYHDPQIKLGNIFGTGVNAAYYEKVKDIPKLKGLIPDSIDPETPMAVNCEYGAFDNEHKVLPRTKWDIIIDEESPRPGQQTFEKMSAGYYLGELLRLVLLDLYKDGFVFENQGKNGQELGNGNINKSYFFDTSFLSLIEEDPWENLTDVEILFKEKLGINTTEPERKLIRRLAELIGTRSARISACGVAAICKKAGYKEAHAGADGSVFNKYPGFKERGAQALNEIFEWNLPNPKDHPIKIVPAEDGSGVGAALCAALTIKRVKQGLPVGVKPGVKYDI

YlHxk1 [6] = target: T4, YlHxk1; settings: relative to YlHxk1, absolute Km not given; extract 30 µg/mL protein in PBS pH 7.4; host hxk1 glk1; remark: listed apart in the source
ScHxk2 [7] = target: T3, ScHxk2; settings: relative to YlHxk1, absolute Km not given; extract 30 µg/mL protein in PBS pH 7.4; host hxk1 glk1; remark: listed apart in the source
YlHxk1 [8] = target: T1, YlHxk1; settings: relative to YlHxk1, absolute Km not given; extract 30 µg/mL protein in PBS pH 7.4; host hxk1 glk1; remark: listed apart in the source
YlHxk1 [9] = target: T2, YlHxk1; settings: relative to YlHxk1, absolute Km not given; extract 30 µg/mL protein in PBS pH 7.4; host hxk1 glk1; remark: listed apart in the source

T2 sequence (F2Z672 entry or part of it DEL7-15): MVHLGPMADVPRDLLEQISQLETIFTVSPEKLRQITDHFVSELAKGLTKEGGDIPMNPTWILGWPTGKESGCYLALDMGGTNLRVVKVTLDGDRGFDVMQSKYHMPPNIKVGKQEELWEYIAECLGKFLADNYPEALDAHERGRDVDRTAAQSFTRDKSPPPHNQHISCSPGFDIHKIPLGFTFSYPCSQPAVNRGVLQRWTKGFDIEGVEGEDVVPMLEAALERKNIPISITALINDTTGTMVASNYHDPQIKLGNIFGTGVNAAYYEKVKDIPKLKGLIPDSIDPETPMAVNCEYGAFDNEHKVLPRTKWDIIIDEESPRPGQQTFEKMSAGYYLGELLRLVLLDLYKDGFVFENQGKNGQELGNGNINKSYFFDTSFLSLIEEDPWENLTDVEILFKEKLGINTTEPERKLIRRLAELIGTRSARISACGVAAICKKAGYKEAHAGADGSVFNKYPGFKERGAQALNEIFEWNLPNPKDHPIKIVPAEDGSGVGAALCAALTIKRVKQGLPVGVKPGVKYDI
T4 sequence (F2Z672 entry or part of it DEL155-182): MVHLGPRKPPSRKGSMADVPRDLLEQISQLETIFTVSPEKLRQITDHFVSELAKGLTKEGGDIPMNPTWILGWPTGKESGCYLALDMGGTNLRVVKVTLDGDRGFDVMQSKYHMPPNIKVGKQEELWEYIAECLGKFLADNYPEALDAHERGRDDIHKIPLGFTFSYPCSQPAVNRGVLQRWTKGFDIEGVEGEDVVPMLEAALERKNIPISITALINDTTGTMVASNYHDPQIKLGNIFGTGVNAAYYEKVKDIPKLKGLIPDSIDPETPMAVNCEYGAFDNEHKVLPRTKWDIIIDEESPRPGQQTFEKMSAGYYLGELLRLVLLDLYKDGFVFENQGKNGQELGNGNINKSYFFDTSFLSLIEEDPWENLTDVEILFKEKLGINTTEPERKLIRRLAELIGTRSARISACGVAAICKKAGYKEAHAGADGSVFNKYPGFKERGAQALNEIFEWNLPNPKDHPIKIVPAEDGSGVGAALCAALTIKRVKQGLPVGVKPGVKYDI
T1 sequence (F2Z672 entry or part of it E500G): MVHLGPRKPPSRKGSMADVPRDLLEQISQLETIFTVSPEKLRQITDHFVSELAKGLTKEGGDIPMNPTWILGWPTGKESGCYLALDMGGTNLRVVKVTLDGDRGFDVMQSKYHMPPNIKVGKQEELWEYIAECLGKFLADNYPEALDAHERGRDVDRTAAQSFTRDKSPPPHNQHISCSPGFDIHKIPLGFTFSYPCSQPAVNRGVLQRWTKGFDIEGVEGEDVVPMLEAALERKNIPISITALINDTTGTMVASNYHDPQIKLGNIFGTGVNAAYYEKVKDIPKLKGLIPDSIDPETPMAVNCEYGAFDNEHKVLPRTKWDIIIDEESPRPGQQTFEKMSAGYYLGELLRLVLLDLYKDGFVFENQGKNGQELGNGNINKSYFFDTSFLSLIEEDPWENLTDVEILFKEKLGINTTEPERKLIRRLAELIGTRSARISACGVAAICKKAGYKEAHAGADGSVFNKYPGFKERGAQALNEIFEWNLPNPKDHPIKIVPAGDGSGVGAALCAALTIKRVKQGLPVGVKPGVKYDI

OC[C@H]1OC(O)[C@H](O)[C@@H](O)[C@@H]1O (stereo partly shown) [glucose]
relative hexokinase activity at 20 mM glucose (YlHxk1 [1]): 2.50 ± 0.24 fold vs YlHxk1 | 20 mM glucose (YlHxk1 [2]): 0.18 ± 0.03 fold vs YlHxk1 | 20 mM glucose (ScHxk2 [3]): 1.22 ± 0.16 fold vs YlHxk1 | 20 mM glucose (YlHxk1 [4]): 2.05 ± 0.32 fold vs YlHxk1 | 20 mM glucose (YlHxk1 [5]): 1.00 fold vs YlHxk1

OCC1(O)OC[C@@H](O)[C@@H](O)[C@@H]1O (stereo partly shown) [fructose]
hexokinase activity with 20 mM fructose, relative to YlHxk1 (YlHxk1 [6]): 2.80 ± 0.28 fold vs YlHxk1 | relative hexokinase activity with 20 mM fructose (ScHxk2 [7]): 8.00 ± 0.76 fold vs YlHxk1 | relative hexokinase activity at 20 mM fructose (YlHxk1 [8]): 0.53 ± 0.15 fold vs YlHxk1 | 20 mM glucose (YlHxk1 [5]): 1.00 fold vs YlHxk1 | relative hexokinase activity on 20 mM fructose (YlHxk1 [9]): 3.98 ± 0.67 fold vs YlHxk1
